Experimental data taken from patent US20100261770A1, “PHARMACEUTICAL COMPOSITION FOR IMPROVING LOWER URINARY TRACT SYMPTOMS” (ASTELLAS PHARMA INC., priority 2007, published 2010).
Counter-ions that a name gives are not always drawn.

Tested on: rats with bladder outlet obstruction
Assay: Effect on premicturition contraction in rats with bladder outlet obstruction
Assay type: in vivo
Conditions: iv; for inhibition of the premicturition contraction frequency (single use, ground for dose setting): 0.3 mg(/mL)/kg for the acetanilide compound, 0.001 mg(/mL)/kg for the sulfonamide hydrochloride; for ratio of the premicturition contraction frequency relative to the pre-administration value: drug A 0.3 mg/mL/kg, drug B 0.001 mg/mL/kg, AB combination at both doses, first micturition reflex after administration, 5 animals per group; for significant inhibition of the premicturition contraction (frequency): single use at 0.3 mg/kg or 0.001 mg/kg, or both combined, combination compared to any other groups
Description: The rats were fixed to a dorsal position under pentobarbital anesthesia (50 mg/kg ip), and a catheter (PE-20) was inserted into the bladder from the external urethral orifice. A midline incision was made in the lower abdominal wall, and the proximal urethra, together with the catheter, was tied at two sites with a silk suture (5-0), then, the catheter was removed and the surgical wound was sutured, and then ampicillin (150 mg/kg sc) as an antibiotic was administered to the animals which were then housed in a breeding cage. On the 11th to 12th day after the surgery, a midline incision was made in the lower abdominal wall under pentobarbital anesthesia (50 mg/kg ip), and the silk sutures tying the urethra were removed. The bladder was exposed, followed by drainage of urine, and a catheter (PE-50) was inserted into the bladder from the apical part the bladder and fixed. The other end of this catheter was lead to the outside from the posterior cervical region and then the surgical wound was sutured. In addition, a catheter (PE-50) for the drug administration was inserted into the jugular vein, and then the other end thereof was lead to the outside from the posterior cervical region. Ampicillin (150 mg/kg sc) was administered to the animals which were then returned to a breeding cage. Two to three days later, the rats were retained in a Bollman cage. The catheter inserted into the bladder was connected to a three-way stopcock valve, and one end was connected to a syringe pump (STC-525) and micturition reflex was induced by continuous infusion of physiological saline [3.6 to 12 mL/h (adjusted to achieve a voiding interval of 20 to 40 minutes)]. In addition, the other end was connected to a pressure transducer (TP-400T), and intravesical pressure was measured with a pressure amplifier (AP-601G). The premicturition contraction frequency [evaluated for 10 minutes prior to micturition reflex (maximum intravesical pressure); a contraction showing a drop of 1 cmH2O or more after a rise of 2 cmH2O or more was evaluated as one time] after the stabilization of micturition reflex by continuous infusion of physiological saline for 2 hours or more was taken as a pre-administration value. Vehicle or each drug was intravenously administered after intravesical pressure was lowered to a baseline, and the premicturition contraction frequency in the first micturition reflex was taken as a post-administration value, and evaluated by a ratio (%) relative to the pre-administration value. Drugs for the four groups examined are as follows. Evaluation was carried out using 5 animals for each group.

Row | Compound | inhibition of the premicturition contraction frequency (single use, ground for dose setting) | ratio of the premicturition contraction frequency relative to the pre-administration value [%] | significant inhibition of the premicturition contraction (frequency)
1 | Nc1nc(CC(=O)Nc2ccc(CCNC[C@H](O)c3ccccc3)cc2)cs1 [drug A, (R)-2-(2-aminothiazol-4-yl)-4′-{2-[(2-hydroxy-2-phenylethyl)amino]ethyl}acetanilide] | about 15% | 85.0 | not recognized
2 | CCOc1ccccc1OCCN[C@H](C)Cc1ccc(OC)c(S(N)(=O)=O)c1 [drug B, (R)-5-(2-{[2-(2-ethoxyphenoxy)ethyl]amino}propyl)-2-methoxybenzene-1-sulfonamide hydrochloride] | about 15% | 84.8 | not recognized
